Values joined by “and” are separate entries in the source; they are usually repeats but may differ in a detail not shown here. Equal values may be shown once.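 Following 48 hours of exposure in 96-well plates, responses at five concentrations were used to interpolate endpoints linearly. At the GI50, growth is halved. TGI is the concentration that stops growth completely.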 Numbered stars: 1 amine (or outer) side, 2 acyl side, 3 side chain; on linkers, the order of the positions; unused ones are H or OH. Bridge positions count the residues as written; N and C are the ends. Square brackets hold non-standard residues; d marks the D form. Peptide text beside a SMILES is read from it. I, II: the chains in the order shown. Actinocin(9to1) = Cc1c2oc3c(C)ccc(C(=O)[*:1])c3nc-2c(C(=O)[*:2])c(N)c1=O; aThr = C[C@H](O)[C@H](N)C(=O)O; NMeV = CN[C@H](C(=O)O)C(C)C; Sar = CNCC(=O)O
Experiments:
Experiment in all cases: NCI tumour cell line growth inhibition, 48 h
DLD-1 colon = tested on: DLD-1 colon
DMS 114 small cell lung = tested on: DMS 114 small cell lung
DMS 273 small cell lung = tested on: DMS 273 small cell lung
HOP-18 NSCLC = tested on: HOP-18 NSCLC
HS 578T breast = tested on: HS 578T breast
KM20L2 colon = tested on: KM20L2 colon
LXFL 529 NSCLC = tested on: LXFL 529 NSCLC
M19-MEL melanoma = tested on: M19-MEL melanoma
MCF7 breast = tested on: MCF7 breast
P388 leukemia = tested on: P388 leukemia
P388/ADR leukemia = tested on: P388/ADR leukemia
SN12K1 renal = tested on: SN12K1 renal
SNB-75 CNS = tested on: SNB-75 CNS
SNB-78 CNS = tested on: SNB-78 CNS
T-47D breast = tested on: T-47D breast
XF 498 CNS = tested on: XF 498 CNS
A498 renal = tested on: A498 renal
A549 NSCLC = tested on: A549 NSCLC
CAKI-1 renal = tested on: CAKI-1 renal
CCRF-CEM leukemia = tested on: CCRF-CEM leukemia
COLO 205 colon = tested on: COLO 205 colon
EKVX NSCLC = tested on: EKVX NSCLC
HCC-2998 colon = tested on: HCC-2998 colon
HCT-116 colon = tested on: HCT-116 colon
HCT-15 colon = tested on: HCT-15 colon
HL-60(TB) leukemia = tested on: HL-60(TB) leukemia
HOP-62 NSCLC = tested on: HOP-62 NSCLC
HOP-92 NSCLC = tested on: HOP-92 NSCLC
HT29 colon = tested on: HT29 colon
IGROV1 ovarian = tested on: IGROV1 ovarian
K-562 leukemia = tested on: K-562 leukemia
KM12 colon = tested on: KM12 colon
LOX IMVI melanoma = tested on: LOX IMVI melanoma
MALME-3M melanoma = tested on: MALME-3M melanoma
MOLT-4 leukemia = tested on: MOLT-4 leukemia
NCI-H226 lung = tested on: NCI-H226 lung
NCI-H23 lung = tested on: NCI-H23 lung
NCI-H460 lung = tested on: NCI-H460 lung
NCI-H522 lung = tested on: NCI-H522 lung
NCI/ADR-RES ovarian = tested on: NCI/ADR-RES ovarian
OVCAR-3 ovarian = tested on: OVCAR-3 ovarian
OVCAR-4 ovarian = tested on: OVCAR-4 ovarian
OVCAR-5 ovarian = tested on: OVCAR-5 ovarian
OVCAR-8 ovarian = tested on: OVCAR-8 ovarian
RPMI-8226 leukemia = tested on: RPMI-8226 leukemia
RXF 393 renal = tested on: RXF 393 renal
SF-268 CNS = tested on: SF-268 CNS
SF-295 CNS = tested on: SF-295 CNS
SF-539 CNS = tested on: SF-539 CNS
SK-MEL-2 melanoma = tested on: SK-MEL-2 melanoma
SK-MEL-28 melanoma = tested on: SK-MEL-28 melanoma
SK-MEL-5 melanoma = tested on: SK-MEL-5 melanoma
SK-OV-3 ovarian = tested on: SK-OV-3 ovarian
SN12C renal = tested on: SN12C renal
SNB-19 CNS = tested on: SNB-19 CNS
SW-620 colon = tested on: SW-620 colon
U251 CNS = tested on: U251 CNS
UACC-257 melanoma = tested on: UACC-257 melanoma
UACC-62 melanoma = tested on: UACC-62 melanoma
UO-31 renal = tested on: UO-31 renal
786-0 renal = tested on: 786-0 renal
ACHN renal = tested on: ACHN renal
M14 melanoma = tested on: M14 melanoma
RXF-631 renal = tested on: RXF-631 renal
SR leukemia = tested on: SR leukemia
TK-10 renal = tested on: TK-10 renal

For `Cc1c2oc3c(C)ccc(C(=O)N[C@@H]4C(=O)N[C@H](C(C)C)C(=O)N5CCC[C@H]5C(=O)N(C)CC(=O)N(C)[C@@H](C(C)C)C(=O)O[C@H]4C)c3nc-2c(C(=O)N[C@@H]2C(=O)N[C@H](C(C)C)C(=O)N3CCC[C@H]3C(=O)N(C)CC(=O)N(C)[C@@H](C(C)C)C(=O)O[C@H]2C)c(N)c1=O` (I: [aThr][dV]P[Sar][NMeV] / II: [aThr][dV]P[Sar][NMeV]; ester I:1-I:C, II:1-II:C; linker I:N-II:N via Actinocin(9to1)), the GI50 (DLD-1 colon) was 0.0019 µM, the TGI (DLD-1 colon) was 0.208 µM and 1.2 µM and the GI50 (DMS 114 small cell lung) was 0.00101 µM. The TGI (DMS 114 small cell lung) was 0.0187 µM and 0.0122 µM, the GI50 (DMS 273 small cell lung) was 0.000783 µM and the TGI (DMS 273 small cell lung) was 0.026 µM and 0.0178 µM. For the same compound, the GI50 (HOP-18 NSCLC) was 0.00903 µM, the TGI (HOP-18 NSCLC) was 0.123 µM and 0.125 µM and the TGI (HS 578T breast) was 47.7 nM [middle of 4 runs]. For the same compound, the GI50 (KM20L2 colon) was 0.000964 µM, the TGI (KM20L2 colon) was 0.106 µM and 0.0859 µM and the GI50 (LXFL 529 NSCLC) was 0.00139 µM and 0.000348 µM. For the same compound, the TGI (LXFL 529 NSCLC) was 0.07 µM and 0.32 µM, the GI50 (M19-MEL melanoma) was 0.000496 µM and the TGI (M19-MEL melanoma) was 0.0194 µM and 0.0127 µM. For the same compound, the TGI (MCF7 breast) was 0.0693 µM and 0.25 µM and 0.197 µM, the TGI (P388 leukemia) was 0.0154 µM and the TGI (P388/ADR leukemia) was 0.171 µM. For the same compound, the TGI (SN12K1 renal) was 0.148 µM, the TGI (SNB-75 CNS) was 24.6 nM [middle of 6 runs] and the GI50 (SNB-78 CNS) was 0.00447 µM. The TGI (SNB-78 CNS) was 0.117 µM and 0.315 µM, the TGI (T-47D breast) was 34.3 nM [middle of 4 runs] and the GI50 (XF 498 CNS) was 0.000444 µM. The TGI (XF 498 CNS) was 0.0128 µM and 0.00303 µM.

`CC1OC(CO)(n2cnc3c(N)ncnc32)C(O)C1O` (stereo not given) gave a TGI (A498 renal) greater than 100 µM, a TGI (A549 NSCLC) greater than 100 µM and a TGI (CAKI-1 renal) greater than 100 µM. It also gave a TGI (CCRF-CEM leukemia) greater than 100 µM, a TGI (COLO 205 colon) greater than 100 µM and a TGI (DLD-1 colon) greater than 100 µM. For the same compound, the TGI (DMS 114 small cell lung) was greater than 100 µM, the TGI (DMS 273 small cell lung) was greater than 100 µM and the TGI (EKVX NSCLC) was greater than 100 µM. The TGI (HCC-2998 colon) was greater than 100 µM, the TGI (HCT-116 colon) was greater than 100 µM and the TGI (HCT-15 colon) was greater than 100 µM. It also gave a TGI (HL-60(TB) leukemia) greater than 100 µM, a TGI (HOP-18 NSCLC) greater than 100 µM and a TGI (HOP-62 NSCLC) greater than 100 µM. It also gave a TGI (HOP-92 NSCLC) greater than 100 µM, a TGI (HT29 colon) greater than 100 µM and a TGI (IGROV1 ovarian) greater than 100 µM. It also gave a TGI (K-562 leukemia) greater than 100 µM, a TGI (KM12 colon) greater than 100 µM and a TGI (KM20L2 colon) greater than 100 µM. It also gave a TGI (LOX IMVI melanoma) greater than 100 µM, a TGI (M19-MEL melanoma) greater than 100 µM and a TGI (MALME-3M melanoma) greater than 100 µM. The TGI (MCF7 breast) was greater than 100 µM, the TGI (MOLT-4 leukemia) was greater than 100 µM and the TGI (NCI-H226 lung) was greater than 100 µM. The TGI (NCI-H23 lung) was greater than 100 µM, the TGI (NCI-H460 lung) was greater than 100 µM and the TGI (NCI-H522 lung) was greater than 100 µM. The TGI (NCI/ADR-RES ovarian) was greater than 100 µM, the TGI (OVCAR-3 ovarian) was greater than 100 µM and the TGI (OVCAR-4 ovarian) was greater than 100 µM. The TGI (OVCAR-5 ovarian) was greater than 100 µM, the TGI (OVCAR-8 ovarian) was greater than 100 µM and the TGI (P388 leukemia) was greater than 100 µM. It also gave a TGI (P388/ADR leukemia) greater than 100 µM, a TGI (RPMI-8226 leukemia) greater than 100 µM and a TGI (RXF 393 renal) greater than 100 µM. The TGI (SF-268 CNS) was greater than 100 µM, the TGI (SF-295 CNS) was greater than 100 µM and the TGI (SF-539 CNS) was greater than 100 µM. It also gave a TGI (SK-MEL-2 melanoma) greater than 100 µM, a TGI (SK-MEL-28 melanoma) greater than 100 µM and a TGI (SK-MEL-5 melanoma) greater than 100 µM. The TGI (SK-OV-3 ovarian) was greater than 100 µM, the TGI (SN12C renal) was greater than 100 µM and the TGI (SN12K1 renal) was greater than 100 µM. It also gave a TGI (SNB-19 CNS) greater than 100 µM, a TGI (SNB-75 CNS) greater than 100 µM and a TGI (SNB-78 CNS) greater than 100 µM. It also gave a TGI (SW-620 colon) greater than 100 µM, a TGI (U251 CNS) greater than 100 µM and a TGI (UACC-257 melanoma) greater than 100 µM. The TGI (UACC-62 melanoma) was greater than 100 µM, the TGI (UO-31 renal) was greater than 100 µM and the TGI (XF 498 CNS) was greater than 100 µM.

Compound `CSC1=Nc2ccccc2N=C(c2ccccc2)C1` has a TGI (786-0 renal) greater than 100 µM, a TGI (A498 renal) greater than 100 µM and a TGI (A549 NSCLC) greater than 100 µM. It also gave a TGI (ACHN renal) greater than 100 µM, a TGI (CAKI-1 renal) greater than 100 µM and a TGI (CCRF-CEM leukemia) of 58.9 µM. The TGI (COLO 205 colon) was 51.8 µM, the TGI (DLD-1 colon) was greater than 100 µM and the TGI (DMS 114 small cell lung) was 65.5 µM. It also gave a TGI (DMS 273 small cell lung) greater than 100 µM, a TGI (EKVX NSCLC) greater than 100 µM and a TGI (HCC-2998 colon) greater than 100 µM. The TGI (HCT-116 colon) was 45.6 µM, the TGI (HCT-15 colon) was greater than 100 µM and the TGI (HL-60(TB) leukemia) was 34.9 µM. For the same compound, the TGI (HOP-18 NSCLC) was greater than 100 µM, the TGI (HOP-62 NSCLC) was greater than 100 µM and the TGI (HOP-92 NSCLC) was 85.3 µM. It also gave a TGI (HT29 colon) greater than 100 µM, a TGI (IGROV1 ovarian) greater than 100 µM and a TGI (K-562 leukemia) greater than 100 µM. It also gave a TGI (KM12 colon) greater than 100 µM, a TGI (KM20L2 colon) greater than 100 µM and a TGI (LOX IMVI melanoma) of 32.2 µM. The TGI (LXFL 529 NSCLC) was greater than 100 µM, the TGI (M14 melanoma) was greater than 100 µM and the TGI (M19-MEL melanoma) was greater than 100 µM. For the same compound, the TGI (MALME-3M melanoma) was greater than 100 µM, the TGI (MOLT-4 leukemia) was greater than 100 µM and the TGI (NCI-H226 lung) was greater than 100 µM. For the same compound, the TGI (NCI-H23 lung) was greater than 100 µM, the TGI (NCI-H460 lung) was 46.8 µM and the TGI (NCI-H522 lung) was greater than 100 µM. The TGI (OVCAR-3 ovarian) was greater than 100 µM, the TGI (OVCAR-4 ovarian) was greater than 100 µM and the TGI (OVCAR-5 ovarian) was greater than 100 µM. The TGI (OVCAR-8 ovarian) was greater than 100 µM, the TGI (RXF 393 renal) was 71.6 µM and the TGI (RXF-631 renal) was greater than 100 µM. It also gave a TGI (SF-268 CNS) greater than 100 µM, a TGI (SF-295 CNS) greater than 100 µM and a TGI (SF-539 CNS) greater than 100 µM. The TGI (SK-MEL-2 melanoma) was greater than 100 µM, the TGI (SK-MEL-28 melanoma) was greater than 100 µM and the TGI (SK-MEL-5 melanoma) was greater than 100 µM. It also gave a TGI (SK-OV-3 ovarian) greater than 100 µM, a TGI (SN12C renal) greater than 100 µM and a TGI (SNB-19 CNS) greater than 100 µM. The TGI (SNB-75 CNS) was greater than 100 µM, the TGI (SNB-78 CNS) was greater than 100 µM and the TGI (SR leukemia) was greater than 100 µM. The TGI (SW-620 colon) was 32.6 µM, the TGI (TK-10 renal) was greater than 100 µM and the TGI (U251 CNS) was greater than 100 µM. For the same compound, the TGI (UACC-257 melanoma) was greater than 100 µM, the TGI (UACC-62 melanoma) was greater than 100 µM and the TGI (UO-31 renal) was greater than 100 µM. For the same compound, the TGI (XF 498 CNS) was greater than 100 µM.
